Test results published in US20250374923A1 (priority 2022, published 2025).
Several values for one entry are separate records, joined by “and”; a condition that tells them apart may be missing. Equal entries are not always repeated. Structures can show the parent of a compound that is named as a salt.

Key:
[1] = average of six replications; fruit collected December 7
Excerpt: (§1) Treatments included the application of oxytetracycline (OTC) using Invaio's proprietary injection system into the scion of each tree. The trial was designed as a randomized complete blocking which three treatments were applied to each of four trees within each of six replications at three different treatment dates. […] The OTC is a commercial oxytetracycline product. One injection of OTC was made in each tree for the first two injections timings and two OTC injections were made per tree at the third application timing.
Fruit was collected from trees of the OTC treatment by replication on December 7 and bulked according to treatment and replication to create individual fruit samples for OTC residue analysis. Similarly, fruit was collected from trees from two replications of nontreated treatments and bulked by replication to create individual fruit samples for OTC residue analysis.

citrus greening [2] = details: average across six replications; harvested December 21
Excerpt: as §1
Fruit yield. Fruit yield was determined for trees of each treatment as the total weight (lbs) of fruit picked (harvested) from each tree on December 21. Fruit yield was recorded as an average by replication and as an average across all six replications (Table 3).

citrus greening [3] = test: Example 1 field trial: BRIX analysis of fruit; details: fruit collected December 8
Excerpt: (§2) Field trial design. […] Treatments included the application of oxytetracycline (OTC) using Invaio's proprietary injection system into the scion of each tree. The trial was designed as a randomized complete blocking which three treatments were applied to each of four trees within each of six replications at three different treatment dates. […] The OTC is a commercial oxytetracycline product. One injection of OTC was made in each tree for the first two injections timings and two OTC injections were made per tree at the third application timing.
BRIX analysis. Fruit was collected from trees of each treatment by replication on December 8 and bulked according to treatment and replication to create individual fruit samples for BRIX analysis.

citrus greening [4] = test: Example 1 field trial: fruit drop
Excerpt: as §2
Fruit drop. Fruit drop was determined for trees of each treatment as the number of fruit on the ground underneath each tree at each of six counting dates, approximately 2 weeks apart, beginning on October 13 and finishing prior to fruit harvest on December 21. Counted fruit were removed from the ground after each counting date. Fruit drop was recorded as an average by date and as an average across all six dates (Table 4).

citrus greening [5] = system: citrus greening
Description: The treatment delivered 150 mg OTC-HCl per season.
The treatment delivered 600 mg OTC-HCl per season.

CN(C)[C@@H]1C(O)=C(C(N)=O)C(=O)[C@@]2(O)C(O)=C3C(=O)c4c(O)cccc4[C@@](C)(O)[C@H]3[C@H](O)[C@@H]12 [OTC, oxytetracycline]
OTC residue in fruit, treatment average [1]: 0.007 ppm and 0.006616 ppm
Fruit yield (lbs per tree), treatment average (citrus greening [2]): 48.7 lbs per tree and 50.4 lbs per tree
Brix, treatment average (citrus greening [3]; average of six replications): 8.0
Brix (citrus greening [3]; by replication, OTC 1.58 mg/mL, 60 ml scion injections): 8.1 and 8.4 and 8 and 7.6
Fruit drop (number), treatment average (citrus greening [4]; average across replications and dates): 17.8 number
Fruit drop (number), rep average across dates (citrus greening [4]; average of six counting dates, by replication): 20.9 number and 20.5 number and 16.0 number and 17.1 number and 14.5 number and 18.0 number
Fruit drop (number) (citrus greening [4]; counting date 8-Dec, by replication): 19.0 number and 13.3 number and 14.0 number and 12.3 number and 15.0 number and 22.8 number
Fruit drop (number) (citrus greening [4]; counting date 9-Nov, by replication): 31.5 number and 20.5 number and 23.8 number and 18.5 number and 22.0 number and 28.0 number
Fruit drop (number) (citrus greening [4]; counting date 13-Oct, by replication): 11.5 number and 8.8 number and 9.0 number and 7.3 number and 14.5 number and 14.3 number
Fruit drop (number) (citrus greening [4]; counting date 21-Dec, by replication): 17.5 number and 20.0 number and 16.5 number and 16.8 number and 12.0 number and 15.0 number
Fruit drop (number) (citrus greening [4]; counting date 24-Nov, by replication): 26.8 number and 18.3 number and 20.8 number and 21.8 number and 28.0 number
Fruit drop (number) (citrus greening [4]; counting date 28-Oct, by replication): 14.5 number and 18.8 number and 18.3 number and 16.3 number and 19.8 number and 15.0 number

CN(C)[C@@H]1C(O)=C(C(N)=O)C(=O)[C@@]2(O)C(O)=C3C(=O)c4c(O)cccc4[C@@](C)(O)[C@H]3[C@H](O)[C@@H]12 [OTC-HCl, oxytetracycline hydrochloride]
yield increase over water (citrus greening [5]; 150 mg OTC-HCl per season (FIG. 30)): about 74%
yield increase over the nontreated controls (citrus greening [5]; 600 mg OTC-HCl per season (FIG. 31)): ~53%
